From article PMC6010047, “Design, synthesis and biological evaluation of novel hydroxy-phenyl-1H-benzimidazoles as radical scavengers and UV-protective agents” (Journal of Enzyme Inhibition and Medicinal Chemistry, 2017)
Read-outs that look alike come from different tables or passages of the source.

Assays:
[1] = UV spectra: λmax and molar extinction coefficient; format: physicochemical; details: for λ max: aqueous solution at pH 7; for ɛ (molar extinction coefficient): aqueous solution at pH 7, at λ max, linear regression Lambert–Beer
Protocol: Sun protection factor (SPF) is related to the UV absorption of the substances, so before including the molecules in cosmetic formulations we evaluated the wavelength of maximum absorption (λmax) and the molar extinction coefficient (ɛ) of each molecule in aqueous solution at pH 7. The UV spectra were recorded between 270 and 420 nm (20 nm higher and lower then UVA and UVB range) to verify the spectrum profile of the molecules within UVA and UVB region. UV spectrum of PBSA is an UVB filter and presents a λmax of 302 nm; after this peak, the absorbance fades going to higher wavelength until almost zero around 325 nm, and then, it provides no absorption in the UVA region. Molecules spectra overlapped for category according to the substituent in position 5 of the benzimidazole ring are shown in Figures 1, 2 and 3; PBSA spectrum is presented in all figures for comparison.
From the spectra appears that the lambda maxima (Table 2) of the new molecules shifted toward higher wavelength and in general the range of absorption curve was wider than PBSA. Within a group of molecules, the batochromic shift was more marked for the molecules that have a hydroxyl moiety in position 2 of the phenyl ring (4, 5, 6, 9, 10, 11, 13 and […]); the effect of ortho substituted is known to produce this shift toward higher wavelength. Increasing the number of auxochrome groups on phenyl ring an increment in the absorption range occurred, compounds with three hydroxyl on the phenyl ring (6, 11, 15) had the broadest spectrum and their lambda maxima shifted at the highest wavelength compared to the other compounds. The absorption spectrum of molecules with the same number and position of hydroxyl seemed only slightly influenced by the substituent in position 5 of the benzimidazole ring. After having established the lambda maxima for every compound, solutions at different concentrations were prepared to calculate the molar extinction coefficient by means of linear regression and applying Lambert–Beer equation (Table 2).

[2] = PCL antioxidant activity of finished formulations; format: biochemical; details: 3% (w/w) compound in O/W formulation
Protocol: PCL assay, based on the methodology of Popov and Lewin[23], was used to measure the antioxidant activity of synthesized compounds with a Photochem® apparatus (Analytik Jena, Leipzig, Germany) against superoxide anion radicals generated from luminol, a photosensitizer, when exposed to UV light (Double Bore® phosphor lamp, output 351 nm, 3 mWatt/cm^2). The antioxidant activity was measured using ACL (Antioxidant Capacity of Liposoluble substance) kit provided by the manufacturer designed to measure the antioxidant activity of lipophilic compounds[24]. […] The areas under the curves were calculated using the PCLsoft control and analysis software. […] This inhibition was used as a parameter for quantification and related to the decrease in the integral of PCL intensities caused by varying concentrations of Trolox. The observed inhibition of the signal was plotted against the concentration of Trolox added to the assay medium. The concentration of the added tested compounds was such that the generated luminescence during the 180-s sampling interval fell within the limits of the standard curve. The antioxidant assay was carried out in triplicate for each sample, and 20 μL of the diluted compound in HPLC-grade methanol (ACL) was sufficient to correspond to the standard curve.
It was decided to use a standard formulation oil in water (O/W).
In particular, molecules with phenolic hydroxyl in the ortho position on the phenyl ring (4, 5, 9, 10 and 13) had better and higher UVA/UVB ratio and critical wavelength, although they have the SPF value less than lead compound. Formulation containing products 2 and 14, which have a phenolic hydroxyl at the para position on the phenyl ring, have shown good values in terms of SPF, greater UVA protection factor, critical wavelength and also higher UVA/UVB ratio than PBSA, but yet lower than the molecules containing hydroxyl on the phenyl ring in ortho. […] Compound 8 has lower SPF than 3, but higher than PBSA; in comparison with 3, molecules 8 and 12 presented higher UVA/UVB ratio and critical wavelength. Regarding compounds with three hydroxyls on phenyl ring, they have good UVA filtering parameters, their critical wavelengths are the highest and SPF is higher than PBSA for molecule 6, while SPF of 15 is slightly lower and decreases further in molecule 11. Thus, it can be observed that parameters are mainly influenced by the number and position of the hydroxyl groups on the phenyl ring rather than the substituent in the 5-position of benzimidazole. Concomitantly, all formulations were analyzed to assess whether the antioxidant power was maintained. […] In Table 4, the antioxidant activity, measured by PCL method, of finished formulations is reported; as it can be seen results were in agreement with that obtained testing the pure compounds. […] Formulations containing compounds 3, 8 and 12 presented highest antioxidant capabilities; these are followed, but with important decrease in antioxidant capacity, by formulations with compounds 6, […] and 15 that have three hydroxyl moieties on phenyl ring.

[3] = format: physicochemical
Protocol: HPLC analysis was performed using an Agilent 1100 Series HPLC System equipped with a G1315A DAD, and with a Hydro-RP C18 Synergi 80 Å column (4.6 × 150 mm, 4 μm) from Phenomenex, maintained at 25 °C during all the time of the analysis. The mobile phase consisted of water (0.01 M H3PO4) (solvent A) and acetonitrile (0.01 M H3PO4) (solvent B). • PBSA and 3: the determination was carried out in isocratic condition, A: 91%/B: 9%. Separation was monitored with absorbance detection at λmax of the molecule ±8 nm. The flow rate was 1.0 mL/min. • […]: the determination was carried out in isocratic condition, A: 84%/B: 16%. Separation was monitored with absorbance detection at λmax of the molecule ±8 nm. The flow rate was 1.0 mL/min
Molecules 3 and 12 were challenged in accelerated stability studies against the parent compound. The formulations were submitted to accelerated aging at 40 °C and analyzed at specific intervals, with HPLC.

NCTC-2544 cells = assay: Phototoxicity / cellular photoprotection, UVA or UVB irradiation, MTT test; details: for viability at 50 µM: Homo sapiens, NCTC-2544, light or radiation study, 48 h; for cell survival in relation to the irradiated control: after UVB irradiation 1 J/cm^2
Protocol: An immortalized, nontumorigenic cell line of human keratinocytes (NCTC-2544) was grown in a DMEM medium (Sigma-Aldrich Milan, Italy), supplemented with 115 units/mL of penicillin G, 115 μg/mL streptomycin, and 10% fetal calf serum (Invitrogen, Milan, Italy). Individual wells of a 96-well tissue culture microtiter plates (Falcon, Becton–Dickinson) were inoculated with 100 μL of complete medium containing 5 × 10^3 NCTC-2544. The plates were incubated at 37 °C in a humidified (5% CO2) incubator for 18 h prior to the experiments.
Two HPW 125 Philips lamps, mainly emitting at 365 nm, were used for UVA irradiation experiments. The spectral irradiance of the source was 4.0 mWcm^−^2 as measured at the sample level by a Cole-Parmer Instrument Company radiometer (Niles, IL) equipped with a 365-CX sensor. One or two PL-S 9 W/12 Philips lamps (280–370 nm; peak at 315 nm) were used for UVB irradiation experiments. To restrict the incident radiation to the range 305–370 nm, a glass filter (Schott SWG-305) was used. Total energy was detected by the same equipped with a sensor (model CX-312).
After medium removal, 100 μL of the drug solution, dissolved in DMSO and diluted with Hank’s Balanced Salt Solution (HBSS pH =7.2), was added to each well, incubated at 37 °C for 30 min, and then irradiated (20 J/cm^2 for UVA and 0.5 and 1 J/cm^2 for UVB). After irradiation, the solution was replaced with the medium and the plates were further incubated for 48 h. Cell viability was assayed by the MTT [(3–(4,5-dimethylthiazol-2-yl)-2,5 diphenyl tetrazolium bromide)] test as previously described by Mosmann[27].
Molecules were verified for their photocytotoxicity in the same cell line; the cells were treated with 50 μM solutions of compound and after 30 min were irradiated with 20 J/cm^2 UVA or with UVB at two energy amounts: 0.5 J/cm^2 and 1 J/cm^2 UVB. […] After irradiation, the solution was replaced with growth medium and the cells were further incubated for 48 h, and then, cell viability was assessed by MTT assay. […] The phototoxicity of tested molecules was compared with the ratio of cell survival of irradiated keratinocytes without substance (IC = irradiated control).

[4] = read-out: % Cell survival UVA 20 J/cm^2
[5] = read-out: % Cell survival UVB 0.5 J/cm^2
[6] = read-out: % Cell survival UVB 1 J/cm^2

SMILES | λ max [1] [nm] | ɛ (molar extinction coefficient) [1] | PCL of finished formulation [2] | % of remaining compounds T0 [3] [%] | % of remaining compounds T7 [3] | % of remaining compounds T14 [3] | % of remaining compounds T21 [3] | % of remaining compounds T28 [3] | % of remaining compounds T35 [3] | % of remaining compounds T49 [3] | % of remaining compounds T63 [3] | viability at 50 µM (NCTC-2544 cells; [4]) [%] | viability at 50 µM (NCTC-2544 cells; [5]) [%] | viability at 50 µM (NCTC-2544 cells; [6]) [%] | cell survival in relation to the irradiated control (NCTC-2544 cells) | phototoxic effect (cell survival vs irradiated control) (NCTC-2544 cells; NCTC-2544, UVA/UVB irradiation)
O=S(=O)(O)c1ccc2[nH]c(-c3ccc(O)c(O)c3)nc2c1 [Compound 3, 2-(3,4-Dihydroxy-phenyl)-1H-benzimidazole-5-sulfonic acid] | 313 | 23 000 | 2212.09 ± 68.35 μmol Trolox/g formulation | 100 | 96,7% | 89,6% | 86,3% | 73,4% | 73,4% | 67,6% | 64,6% | 77.4 ± 4 | 71.5 ± 2.5 | 58.1 ± 2.6 | doubled | 
O=C(O)c1ccc2[nH]c(-c3ccc(O)c(O)c3)nc2c1 [Compound 12, 2-(3,4-Dihydroxy-phenyl)-1H-benzimidazole-5-carboxylic acid] | 317 | 21 000 | 1373.39 ± 19.43 μmol Trolox/g formulation | 100 | 95,4% | 95,4% | 95,1% | 92,8% | 86,9% | 86,9% | 86,8% | 74.3 ± 2 | 76.3 ± 3.6 | 64.5 ± 3.5 | doubled | 
O=C(O)c1ccc2[nH]c(-c3ccc(O)c(O)c3O)nc2c1 [Compound 15, 2-(2,3,4-Trihydroxy-phenyl)-1H-benzimidazole-5-carboxylic acid] | 332 | 17 000 | 86.99 ± 6.95 μmol Trolox/g formulation |  |  |  |  |  |  |  |  | 12.2 ± 1.3 | 60.1 ± 2.3 | 25.6 ± 2.7 |  | phototoxic effect
O=S(=O)(O)c1ccc2[nH]c(-c3ccccc3)nc2c1 [PBSA, 2-phenyl-1H-benzimidazole-5-sulfonic acid, reference compound] | 302 | 25 000 | <LOQ^b | 100 | 99,4% | 98,1% | 97,2% | 96,4% | 94% | 92% | 90% | 74.5 ± 1.4 | 75.2 ± 4.5 | 64.2 ± 3.1 | doubled | 
